# Experimental data: PubChem BioAssay AID608 (Sanford-Burnham Center for Chemical Genomics, 2007)
# Activity calls are given as the source filed them. The rule behind the calls is not given here.
# Target: Peptidyl-prolyl cis-trans isomerase FKBP1A (Homo sapiens) (UniProt P62942)
# Assay: FKBP12 binders, biophysical, NMR detection (AID 608)
# Details: NMR binding, purified FKBP12
# Chain of Peptidyl-prolyl cis-trans isomerase FKBP1A (Homo sapiens) (P62942 whole entry, looked up): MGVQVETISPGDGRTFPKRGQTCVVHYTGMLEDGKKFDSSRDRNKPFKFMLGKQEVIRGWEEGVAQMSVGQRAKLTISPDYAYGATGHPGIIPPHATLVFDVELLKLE
row,Compound,Kd
1,O=C(O)/C=C(\CC(=O)O)C(=O)O,> 4 mM (inactive)
2,Cc1nc2c(n1O)CCc1c-2no[n+]1[O-],> 4 mM (inactive)
3,CC12CC[C@H](CC1=O)C2(C)C,> 4 mM (inactive)
4,O=C(/C=C/c1ccc(O)c(O)c1)O[C@@H]1C[C@](O)(C(=O)O)C[C@@H](O)[C@H]1O,> 4 mM (inactive)
5,O=C(/C=C/c1ccccc1)c1ccc(O[C@@H]2O[C@H](CO)[C@@H](O)[C@H](O)[C@H]2O)cc1O,> 4 mM (inactive)
6,CC(=O)O[C@@H]1CC2C(C)(C)C(=O)C=C[C@]2(C)C2CC[C@]3(C)C(=CC(=O)O[C@H]3c3ccoc3)[C@@]21C (some centres undefined),> 4 mM (inactive)
7,Nc1ncnc2c1ncn2CCN1CCOCC1,> 4 mM (inactive)
8,Nc1nnc(COc2cccc(C(F)(F)F)c2)s1,> 4 mM (inactive)
9,CC(C)=CCC1=C(O)c2ccccc2C(=O)C1=O,> 4 mM (inactive)
10,O=c1[nH]c2ccccc2c(=O)n1CCCO,> 4 mM (inactive)
11,Nc1ccc(C(=O)NCC2CCCO2)cc1 (centres undefined),> 4 mM (inactive)
12,CN(C)S(=O)(=O)c1ccc(N2CCOCC2)nc1,> 4 mM (inactive)
13,COc1ccc2c(CC(=O)O)coc2c1,> 4 mM (inactive)
14,COc1cc(C/C=C/c2ccccc2)c(OC)cc1O,> 4 mM (inactive)
15,CNC(=O)Nc1ccc(C(=O)NC)cc1,> 4 mM (inactive)
16,Cc1c(C(=O)NC2=NCCS2)oc2ccccc12,> 4 mM (inactive)
17,Cc1cc(NC(=O)Cc2c(F)cccc2Cl)no1,> 4 mM (inactive)
18,c1ccc(C[N+]23CCN(CC2)CC3)cc1,> 4 mM (inactive)
19,O=C(NC(O)C(=O)c1ccccc1)c1ccco1 (centres undefined),> 4 mM (inactive)
20,O=C(O)Cc1noc2ccccc12,> 4 mM (inactive)

row,Compound,Kd
1,NC(=O)c1ccc2c(c1)OCO2,> 4 mM (inactive)
2,Cc1cc(NC(=O)c2cc(C)on2)no1,> 4 mM (inactive)
3,CCC[C@H]1CC2=C(C[C@@H](CC)CC3=C1C(=O)OC3=O)C(=O)OC2=O,> 4 mM (inactive)
4,CC(C)=CC1C(CO)C1(C)C (centres undefined),> 4 mM (inactive)
5,Cc1ccc(Nc2nnns2)cc1C,> 4 mM (inactive)
6,COc1ccc(C)cc1S(=O)(=O)Nc1ccccc1C,> 4 mM (inactive)
7,CC(C)(C)Cc1nc(-c2ccccn2)no1,> 4 mM (inactive)
8,CC(=O)c1nnc2cc(C)nn2c1C,> 4 mM (inactive)
9,COc1cc2c(cc1OC)C(C)NCC2 (centres undefined),> 4 mM (inactive)
10,Cc1noc(-c2ccccc2)c1C(=O)O,> 4 mM (inactive)
11,CNC(=O)C1CC(=O)N(c2ccc(O)cc2)C1 (centres undefined),> 4 mM (inactive)
12,Cn1c(=O)n(C)c2cc(C(N)=O)ccc21,> 4 mM (inactive)
13,CC(=O)OC[C@H]1O[C@@H](Oc2cc(OC(C)=O)c3c(=O)cc(-c4ccc(OC(C)=O)cc4)oc3c2)[C@H](OC(C)=O)[C@@H](OC(C)=O)[C@@H]1OC(C)=O,> 4 mM (inactive)
14,CN=C(C)c1c(O)n(C)c(=S)n(C)c1=O,> 4 mM (inactive)
15,COC1C(O)C(O[C@H]2CC[C@]3(C=O)C4C(CC[C@]3(O)C2)[C@@]2(O)CC[C@H](C3=CC(=O)OC3)[C@@]2(C)C[C@H]4OC(C)=O)OC(C)C1OC(C)=O (some centres undefined),> 4 mM (inactive)
16,O=c1[nH]cc(NCc2ccccc2)c(=O)[nH]1,> 4 mM (inactive)
17,Cc1cc(=O)n2[nH]c(C)cc2n1,> 4 mM (inactive)
18,OCC1=Cc2ccccc2OC1,> 4 mM (inactive)
19,CN(C)C(=S)Nc1nc2ccccc2s1,0.152 mM
20,O=c1c(O)c(-c2ccccc2)oc2cc(O)ccc12,> 4 mM (inactive)

row,Compound,Kd
1,O=S(=O)(Cc1ccc(Cl)cc1)N1CCCC1,> 4 mM (inactive)
2,O=C(O)CNC(=O)c1ccccc1Cl,> 4 mM (inactive)
3,CC(=O)NC(O)C(=O)c1ccccc1 (centres undefined),> 4 mM (inactive)
4,NC1=NC(=O)C(CC(=O)Nc2ccccc2F)S1 (centres undefined),> 4 mM (inactive)
5,CC(=O)Nc1cccc(-c2nnc(-c3ccccc3)o2)c1,> 4 mM (inactive)
6,O=C(Nc1ccncc1)c1c(F)cccc1F,> 4 mM (inactive)
7,CN1CCCC1C(=O)O (centres undefined),> 4 mM (inactive)
8,CC12CCCC(O)(C1)C1CC(C)(C)C1CC2 (centres undefined),> 4 mM (inactive)
9,O=C(NC1CCS(=O)(=O)C1)c1ccccc1 (centres undefined),> 4 mM (inactive)
10,O=c1[nH]c2sc3c(c2c2ncnn12)CCCC3,> 4 mM (inactive)
11,O=S1(=O)NC(=NCc2ccco2)c2ccccc21,> 4 mM (inactive)
12,CC1/C(=N/O)C[C@@H]2C[C@H]1C2(C)C (some centres undefined),> 4 mM (inactive)
13,O=C1CNC(=O)N1Cc1ccc(Br)cc1,> 4 mM (inactive)
14,C=CCCCCCCCCCCCC(O)CC(O)COC(C)=O (centres undefined) (tested in a mixture with another compound),> 4 mM (inactive)
15,COc1ccc(CN2CCC(O)CC2)c(O)c1,> 4 mM (inactive)
16,Cc1[nH]n(-c2ccccc2)c(=O)c1[N+](=O)[O-],> 4 mM (inactive)
17,CC(=O)c1cccc(NC(=O)Nc2c(C)nn(C)c2C)c1,> 4 mM (inactive)
18,O=C(NCc1ccccc1Cl)c1cnn2cccnc12,> 4 mM (inactive)
19,O=C(c1ccncc1)N1CCN(C(=O)c2ccco2)CC1,> 4 mM (inactive)
